The text below walks through data of US8329726B2, “Inhibitors of VEGF receptor and HGF receptor signaling” (MethylGene Inc., priority 2005, dated 2012).

Usually IC50 stands for the midpoint of a concentration-inhibition curve.

Experiment [1] addresses T1, recombinant human c-Met/HGF receptor (Homo sapiens, UniProt P08581).
T1 construct: His tag (pBlueBacHis2A vector); made in house; host or cells: Hi-5 cells (Trichoplusia ni), baculovirus
Kind of experiment: In vitro receptor tyrosine kinase assay (DELFIA), c-Met/HGF receptor. The experiment is classed as biochemical. The conditions noted are these: read-out: CMET IC50. How it is done:
Cell pellets were frozen at −80° C. until purification was performed.
(§1) The coated plates were washed and stored at 4° C. […] After incubation, the kinase reactions were quenched with EDTA and the plates were washed.

Another experiment has as its target T2, VEGF receptor KDR (Homo sapiens, UniProt P35968).
T2 construct: made in house; host or cells: Sf9 cells (Spodoptera frugiperda), baculovirus
Put plainly: In vitro receptor tyrosine kinase assay (DELFIA), VEGF receptor KDR. Particulars: read-out: VEGFR IC50. The experiment is classed as biochemical. How it is done: In the case of VEGF receptor KDR a 1.6-kb cDNA corresponding to the catalytic domain of VEGFR2 or KDR (Genbank accession number AF035121 amino acid 806 to 1356) was cloned into the Pst I site of the pDEST20 Gateway vector (Invitrogen) for the production of a GST-tagged version of that enzyme.
The GST-VEGFR2806-1356 protein was expressed in […] (Spodoptera frugiperda) upon infection with recombinant baculovirus construct. […] Cell pellets were frozen at −80° C. until purification was performed.
The supernatant (cell extract) was used as starting material for purification of GST-VEGFR2806-1356.
The supernatant was loaded onto a GST-agarose column (Sigma) equilibrated with PBS pH 7.3. Following a four column volume (CV) wash with PBS pH 7.3+1% Triton X-100 and 4 CV wash with buffer B (50 mM Tris pH 8.0, 20% glycerol and 100 mM NaCl), bound proteins were step eluted with 5 CV of buffer B supplemented with 5 mM DTT and 15 mM glutathion. GST-VEGFR2806-1356 enriched fractions from this chromatography step were pooled based on U.V. trace i.e. fractions with high O.D.280. Final GST-VEGFR2806-1356 protein preparations concentrations were about 0.7 mg/ml with purity approximating 70%.
as §1

For the next experiment, the system named is A549. Put plainly: A549 wound healing inhibition (HGF dependent migration). The experiment is classed as cell-based. The conditions noted are these: Homo sapiens, A549 cells, read-out: A549 WOUND HEALING INHIB IC50. The text has this: (§2) HGF has well known activity in terms of inducing scattering and migration (wound healing) (Wells et al., Cell Motil Cytoskeleton. 2005 November 62(3):180-94; Miura et al., Urology 2001 December 58(6):1064-9; Nishimura et al., Int J Urol. 1998 May 5(3):276-81; Wang et al., Mol Cancer Ther. 2003 November; 2(11):1085-92; and Christensen et al., Cancer Res. 2003 Nov. 1; 63(21):7345-55).

In the next experiment the test system is DU145. Put plainly: DU145 scattering inhibition (HGF dependent scattering). The experiment is classed as cell-based. Particulars: Homo sapiens, DU-145; HGF dependent scattering, DU145 cells; read-out: DU145 SCATTERING INHIB IC50.
Source text: as §2

T1 sequence (P08581 1078-1337): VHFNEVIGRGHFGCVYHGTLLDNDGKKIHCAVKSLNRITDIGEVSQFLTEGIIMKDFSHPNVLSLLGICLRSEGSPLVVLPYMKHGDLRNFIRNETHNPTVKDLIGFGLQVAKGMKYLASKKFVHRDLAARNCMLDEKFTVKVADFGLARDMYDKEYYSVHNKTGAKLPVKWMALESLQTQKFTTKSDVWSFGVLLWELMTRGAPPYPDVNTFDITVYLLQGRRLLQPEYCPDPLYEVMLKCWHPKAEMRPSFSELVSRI
T2 sequence (P35968 806-1356): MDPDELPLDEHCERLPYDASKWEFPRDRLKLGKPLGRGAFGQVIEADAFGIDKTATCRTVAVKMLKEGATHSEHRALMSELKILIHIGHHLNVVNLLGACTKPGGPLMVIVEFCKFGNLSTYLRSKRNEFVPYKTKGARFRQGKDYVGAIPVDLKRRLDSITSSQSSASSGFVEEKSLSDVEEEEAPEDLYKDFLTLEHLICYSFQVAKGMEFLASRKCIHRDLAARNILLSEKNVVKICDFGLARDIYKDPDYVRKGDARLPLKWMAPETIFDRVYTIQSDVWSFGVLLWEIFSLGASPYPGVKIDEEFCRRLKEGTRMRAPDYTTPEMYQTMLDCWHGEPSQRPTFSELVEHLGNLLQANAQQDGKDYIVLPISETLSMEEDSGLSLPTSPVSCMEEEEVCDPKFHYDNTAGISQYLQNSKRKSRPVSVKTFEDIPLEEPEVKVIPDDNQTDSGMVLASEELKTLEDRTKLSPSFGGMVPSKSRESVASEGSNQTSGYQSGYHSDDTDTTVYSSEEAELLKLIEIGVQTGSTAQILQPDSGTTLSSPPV

With `CCCn1cnc(-c2cc3nccc(Oc4ccc(NC(=O)CC(=O)Nc5ccccc5F)cc4F)c3s2)c1`, the IC50 in experiment [1] was less than 50 nM; at VEGF receptor KDR, less than 50 nM; with A549, less than 1000 nM; with DU145 it was less than 1000 nM.

Regarding `COc1ccccc1NC(=O)CC(=O)Nc1ccc(Oc2ccnc3cc(-c4ccc(OCCCN(C)C)nc4)sc23)c(F)c1`, the IC50 in experiment [1] fell in the range of 50 to 250 nM; at VEGF receptor KDR it was 250 to 500 nM; in the experiment with A549, 1000 to 5000 nM; in the experiment with DU145, 1000 to 5000 nM.

Consider `CC(C)n1cnc(-c2cc3nccc(Oc4ccc(NC(=O)C5CC(=O)N(c6ccccc6)C5)cc4F)c3s2)c1` (stereo not shown), for which the IC50 in experiment [1] was 250 to 500 nM; at VEGF receptor KDR, more than 500 nM; in the experiment with A549 it was 1000 to 5000 nM; with DU145, more than 10000 nM.

In the case of `CN1CCN(CCN(C)Cc2ccc(-c3cc4nccc(Oc5ccc(NC(=O)N6CCN(c7ccccc7)C6=O)cc5F)c4s3)cc2)CC1`, the IC50 in experiment [1] is less than 50 nM; at VEGF receptor KDR, less than 50 nM; with A549, more than 10000 nM; in the experiment with DU145 it was 1000 to 5000 nM.

In the case of `CCn1cnc(-c2cc3nccc(Oc4ccc(NC(=O)CC(Nc5ccc(F)cc5)C(F)(F)F)cc4F)c3s2)c1` (stereo not shown), the IC50 is 250 to 500 nM in experiment [1], 50 to 250 nM on VEGF receptor KDR, more than 10000 nM in the experiment with A549 and 1000 to 5000 nM in the experiment with DU145.

Turning to `CN1CCN(Cc2ccc(-c3cc4ncnc(Oc5ccc(NC(=O)CC(=O)Nc6ccccc6)cc5F)c4s3)cc2)CC1`, the IC50 was 50 to 250 nM in experiment [1], less than 50 nM at VEGF receptor KDR, more than 10000 nM in the experiment on A549 and 1000 to 5000 nM in the experiment with DU145.

Take `COc1ccccc1NC(=O)CC(=O)Nc1ccc(Oc2ccnc3cc(-c4cn(C)cn4)sc23)c(F)c1`: the IC50 in experiment [1] is 50 to 250 nM; at VEGF receptor KDR, less than 50 nM; in the experiment on A549, less than 1000 nM; in the experiment on DU145 it was less than 1000 nM.

Regarding `CCCn1cnc(-c2cc3nccc(Oc4ccc(NC(=O)CC(=O)Nc5cccc(F)c5)cc4F)c3s2)c1`, the IC50 in experiment [1] is 50 to 250 nM; on VEGF receptor KDR, less than 50 nM; in the experiment on A549 it was 1000 to 5000 nM; in the experiment with DU145, less than 1000 nM.

On to `O=C(O)Cn1cnc(-c2cc3nccc(Oc4ccc(NC(=O)CC(=O)Nc5ccccc5)cc4F)c3s2)c1`, for which the IC50 was less than 50 nM in experiment [1], less than 50 nM on VEGF receptor KDR, more than 10000 nM in the experiment on A549 and more than 10000 nM with DU145.

Turning to `CN(C)[C@H]1CCN(C(=O)c2cc3nccc(Oc4ccc(NC(=O)N5CCN(c6ccccc6)C5=O)cc4F)c3s2)C1`, the IC50 in experiment [1] was less than 50 nM; on VEGF receptor KDR it was less than 50 nM; with A549, less than 1000 nM; in the experiment on DU145, less than 1000 nM.

Take `CN(C)CCn1cnc(-c2cc3nccc(Oc4ccc(NC(=O)CC(=O)Nc5ccccc5)cc4F)c3s2)c1`: the IC50 in experiment [1] is less than 50 nM; at VEGF receptor KDR, less than 50 nM; in the experiment on A549, less than 1000 nM; with DU145, less than 1000 nM.

Regarding `CCn1cnc(-c2cc3nccc(Oc4ccc(NC(=O)CC(=O)Nc5ccc(OC)cc5)cc4F)c3s2)c1`, the IC50 in experiment [1] is 50 to 250 nM; on VEGF receptor KDR, less than 50 nM; in the experiment with A549, less than 1000 nM; with DU145, 1000 to 5000 nM.

For the compound `CCn1cnc(-c2cc3nccc(Oc4ccc(NC(=O)CC(=O)Nc5ccc(F)cc5)cc4F)c3s2)c1`, the IC50 was less than 50 nM in experiment [1], less than 50 nM at VEGF receptor KDR, less than 1000 nM in the experiment on A549 and less than 1000 nM in the experiment on DU145.

For the compound `O=C(Nc1ccc(Oc2ccnc3cc(-c4cn(CCCN5CCCC5)cn4)sc23)c(F)c1)N1CCN(c2ccc(F)cc2)C1=O`, the IC50 in experiment [1] is less than 50 nM; at VEGF receptor KDR it was less than 50 nM; in the experiment on A549 it was less than 1000 nM; with DU145 it was less than 1000 nM.

With `CCn1cnc(-c2cc3nccc(Oc4ccc(NC(=O)CC(=O)Nc5cccc(OC)c5)cc4F)c3s2)c1`, the IC50 in experiment [1] is 50 to 250 nM; at VEGF receptor KDR, less than 50 nM; in the experiment on A549, 1000 to 5000 nM; with DU145, 1000 to 5000 nM.

For `CCn1cnc(-c2cc3nccc(Oc4ccc(NC(=O)C5(C(=O)Nc6ccccc6)CC5)cc4F)c3s2)c1` [drawing 317], the IC50 in experiment [1] is less than 50 nM; on VEGF receptor KDR, less than 50 nM; in the experiment on A549 it was less than 1000 nM; in the experiment on DU145, less than 1000 nM.

Consider `CN(C)CCCn1cnc(-c2cc3nccc(Oc4ccc(NC(=O)CC(=O)N(C)c5ccccc5)cc4F)c3s2)c1`, for which the IC50 in experiment [1] is less than 50 nM; at VEGF receptor KDR, less than 50 nM; in the experiment on A549, less than 1000 nM; in the experiment on DU145, less than 1000 nM.

`CCn1cnc(-c2cc3nccc(Oc4ccc(NC(=O)CC(=O)N(C)c5ccccc5)cc4F)c3s2)c1`: the IC50 in experiment [1] was less than 50 nM; at VEGF receptor KDR, less than 50 nM; with A549, less than 1000 nM; in the experiment with DU145, less than 1000 nM.

As to `CNC(=O)N1CCN(Cc2ccc(-c3cc4nccc(Oc5ccc(NC(=O)N6CCN(c7ccccc7)C6=O)cc5F)c4s3)cc2)CC1`, the IC50 is less than 50 nM in experiment [1], less than 50 nM at VEGF receptor KDR, less than 1000 nM in the experiment with A549 and less than 1000 nM in the experiment on DU145.

As for `COc1ccccc1CCNC(=O)C(=O)Nc1ccc(Oc2ccnc3cc(-c4ccc(OCCN5CCOCC5)c(OC)c4)sc23)c(F)c1`, the IC50 was 250 to 500 nM in experiment [1], more than 500 nM on VEGF receptor KDR, 1000 to 5000 nM in the experiment with A549 and more than 10000 nM in the experiment with DU145.

For the compound `Cn1cnc(-c2cc3nccc(Oc4ccc(NC(=O)C5CCN(c6ccccc6F)C5=O)cc4F)c3s2)c1` (stereo not shown), the IC50 in experiment [1] was 50 to 250 nM; on VEGF receptor KDR, 250 to 500 nM; in the experiment on A549, less than 1000 nM; in the experiment on DU145, 1000 to 5000 nM.

Regarding `COc1ccccc1NC(=O)CC(=O)Nc1ccc(Oc2ccnc3cc(-c4ccc(CN5CCCC5)cc4)sc23)c(F)c1` [drawing 295], the IC50 in experiment [1] was 50 to 250 nM; on VEGF receptor KDR it was less than 50 nM; in the experiment on A549, 1000 to 5000 nM; in the experiment with DU145 it was less than 1000 nM.

Turning to `CN(c1ccc(NC(=O)C2(C(=O)Nc3ccccc3)CC2)cc1F)c1ccnc2ccsc12`, the IC50 is 250 to 500 nM in experiment [1], more than 500 nM at VEGF receptor KDR, 1000 to 5000 nM with A549 and 1000 to 5000 nM in the experiment on DU145.

`Cn1cnc(-c2cc3nccc(Oc4ccc(NC(=O)N5CCN(c6ccccc6)C5=O)cc4)c3s2)c1`: the IC50 is less than 50 nM in experiment [1], 50 to 250 nM on VEGF receptor KDR, less than 1000 nM in the experiment with A549 and less than 1000 nM with DU145.

In the case of `CCn1cnc(-c2cc3nccc(Oc4ccc(NC(=S)N5CCN(c6ccccc6)C5=O)cc4F)c3s2)c1`, the IC50 in experiment [1] was less than 50 nM; on VEGF receptor KDR, less than 50 nM; in the experiment on A549, less than 1000 nM; in the experiment with DU145 it was less than 1000 nM.

In the case of `CN(C)[C@@H]1CCN(C(=O)c2cc3nccc(Oc4ccc(NC(=O)CC(=O)Nc5ccccc5)cc4F)c3s2)C1` [drawing 294], the IC50 in experiment [1] is 50 to 250 nM; at VEGF receptor KDR, 50 to 250 nM; in the experiment on A549, less than 1000 nM; with DU145, 1000 to 5000 nM.

On to `O=C(Nc1ccc(Oc2ccnc3cc(-c4ccc(CN5CCNCC5)cc4)sc23)c(F)c1)N1CCN(c2ccccc2)C1=O`, for which the IC50 in experiment [1] was less than 50 nM; on VEGF receptor KDR it was less than 50 nM; in the experiment on A549, less than 1000 nM; with DU145, less than 1000 nM.

`CNCCn1cnc(-c2cc3nccc(Oc4ccc(NC(=O)CC(=O)Nc5ccccc5OC)cc4F)c3s2)c1`: the IC50 in experiment [1] is 50 to 250 nM; on VEGF receptor KDR it was less than 50 nM; with A549, 1000 to 5000 nM; with DU145, 1000 to 5000 nM.
